Data as given in ChEMBL document CHEMBL3507680, “University of Dundee, Gates Library screen for HepG2 cell viability”.

Experiment: Human HepG2 cell viability assay in 384 well format
Type: toxicity, cell-based
Design: dose 125 nL, time 70.5 hour; cytotoxicity at 70.5 h: concentration not given beside the values
Conditions: HepG2 cells, read-out: Inhibition
With `CC(C)(C)n1ccc(C(=O)N2CCCC(c3ccc(C(=O)O)cc3)C2)c1` (stereo not given) the cytotoxicity at 70.5 h was -13.3%.
In the case of `CCC1=NC(SCC(=O)c2ccccc2)c2cc(CC)sc2N1` (stereo not given), the cytotoxicity at 70.5 h is reported as 13.5%.
Work on `O=C(c1cc(F)ccc1F)C1CCN(C(=O)c2ccc(=O)[nH]n2)CC1` yielded a cytotoxicity at 70.5 h of -9.24%.
For `Cc1ccc(CNC(=O)N2CCN(S(C)(=O)=O)CC2)n1C`, the cytotoxicity at 70.5 h was -6.21%.
For `COc1ccc(CCC(=O)N(C)Cc2c(C)nn(C)c2C)cc1`, the cytotoxicity at 70.5 h was 1.57%.
For `Cc1cc(C)c2c(NCC3(O)CCCCC3)ncnc2n1`, the cytotoxicity at 70.5 h was -2.73%.
For `Cc1nn(C)c(C)c1OCC(=O)N1CCC(O)(C(F)(F)F)CC1`, the cytotoxicity at 70.5 h was -6.23%.
Work on `N#Cc1c2n(c3c(=O)[nH]cnc13)CCCC2` yielded a cytotoxicity at 70.5 h of -6.51%.
Work on `O=C1NC(c2ccccc2)=N[C@@]12CC[C@@H]1CN(Cc3cccnc3)C[C@@H]12` yielded a cytotoxicity at 70.5 h of -0.723%.
Compound `COCCN1CCCN(C(=O)NC(C)Cn2ccnc2)CC1` (stereo not given) has a cytotoxicity at 70.5 h of 2.76%.
In the case of `Cc1cncc(C(=O)N2CCCC(O)(CO)C2)c1` (stereo not given), the cytotoxicity at 70.5 h is reported as -7.18%.
With `CCc1cc2cc(OC)c(OC)cc2nc1SCCN1CCCCC1` the cytotoxicity at 70.5 h was 1.15%.
In the case of `NC(=O)c1cc2c(nc1-c1ccc3c(c1)CCO3)CCC2`, the cytotoxicity at 70.5 h is reported as -5.32%.
In the case of `COc1ccc(CN2CCNC(=O)CC2)cc1SC(F)(F)F`, the cytotoxicity at 70.5 h is reported as 1.64%.
For `Cc1noc([C@@H]2C[C@H]3OCC[C@H]3N(C(C)C)C2)n1`, the cytotoxicity at 70.5 h was 6.58%.
In the case of `Cc1ccc2c(c1)CN(C(=O)c1cnc(C)cn1)C(CN(C)C)CO2` (stereo not given), the cytotoxicity at 70.5 h is reported as 14.1%.
`CCS(=O)(=O)N1CCc2c(nc(C3CCCN3)nc2NC)C1` (stereo not given) showed a cytotoxicity at 70.5 h of 18.6%.
For `O=C(O)c1cc(S(=O)(=O)Nc2cnn(C3CCOCC3)c2)ccc1F`, the cytotoxicity at 70.5 h was -6.44%.
Compound `CC(C)C(O)C1CCN(c2ccnc(C(=O)NCc3ccco3)c2)CC1` (stereo not given) has a cytotoxicity at 70.5 h of -14.1%.
Work on `c1cnc(NCc2noc3c2CN(c2cnccn2)CC3)nc1` yielded a cytotoxicity at 70.5 h of -3.45%.
For `CCN(Cc1c(F)cccc1F)Cn1nc(C)c2c(C)onc2c1=O`, the cytotoxicity at 70.5 h was 2.01%.
For `O=C(NC1CCCC1)[C@@H]1CN(Cc2nccs2)C[C@H]2OCC[C@H]21`, the cytotoxicity at 70.5 h was 33.7%.
`c1cc(CO[C@@H]2CC[C@H]3[C@H]2OCCN3CC2CCOCC2)ccn1` showed a cytotoxicity at 70.5 h of 21.5%.
With `COCC(C)NC(=O)c1cn(C(C)C)cc2c(=O)[nH]nc1-2` (stereo not given) the cytotoxicity at 70.5 h was -6.59%.
Work on `CCOc1ccc(NC(=O)N(CCN(C)C)C(C)c2ccncc2)cc1` (stereo not given) yielded a cytotoxicity at 70.5 h of 13.6%.
`COCCOc1ccnc(-c2noc([C@@H]3CCCN3C3CCC3)n2)c1` gave a cytotoxicity at 70.5 h of -5.26%.
Work on `CC(C)CS(=O)(=O)CC(=O)N(C)Cc1ccc(OC(F)F)cc1` yielded a cytotoxicity at 70.5 h of -3.66%.
`O=C1O[C@@H]2CN(Cc3ccccn3)C[C@@H]2N1CCCc1ccc(F)cc1` gave a cytotoxicity at 70.5 h of 6.23%.
Work on `Cn1cc(CC2CCN(C(=O)NCCc3cccc(O)c3)C2)cn1` (stereo not given) yielded a cytotoxicity at 70.5 h of -12.6%.
`O=C(O)[C@]12CCCN(Cc3cccs3)C[C@H]1CN(c1ncccn1)C2` gave a cytotoxicity at 70.5 h of -9.42%.
`Brc1ccc(CNCc2nnc3n2CCCCC3)s1` gave a cytotoxicity at 70.5 h of -16.6%.
Work on `CCC(OC)C(=O)N1CCC2(CC1)c1nc[nH]c1CCN2S(C)(=O)=O` (stereo not given) yielded a cytotoxicity at 70.5 h of 32.6%.
For `COCCCN(C)C(=O)Cn1cccc(OC)c1=O`, the cytotoxicity at 70.5 h was -10.6%.
For `Fc1cnc(N2CCN3C[C@H](Oc4cccnc4)C[C@H]3C2)nc1`, the cytotoxicity at 70.5 h was -3.94%.
`CNc1cc(C2CCCN2Cc2ccccc2C(=O)O)ccn1` (stereo not given) gave a cytotoxicity at 70.5 h of -9.85%.
Compound `Cc1csc(C(=O)N2CCC3(CC(N(C)c4ccncn4)C3)C2)c1` (stereo not given) has a cytotoxicity at 70.5 h of -5.37%.
Work on `COc1ccc(OC)c(CNc2nnc(C(C)(C)C)o2)c1` yielded a cytotoxicity at 70.5 h of -12.4%.
`CC(C)c1nnc(N2C[C@@H]3CC[C@H](C2)N(CC2CCC2)C3)s1` showed a cytotoxicity at 70.5 h of -2.56%.
With `CC(=O)N1CCO[C@@H]2CN(Cc3ccccc3Cl)C[C@@H]2C1` the cytotoxicity at 70.5 h was -5.68%.
With `CC(=O)N(C)Cc1ccccc1NC(=O)c1ccccc1C` the cytotoxicity at 70.5 h was -2.28%.
With `COc1ccc(CC(=O)N2CCC(Nc3ccc(C)nn3)CC2)cc1` the cytotoxicity at 70.5 h was -3.12%.
`Cc1cnc(CN(C)C2CCN(CC(=O)N(C)c3nccs3)C2)o1` (stereo not given) gave a cytotoxicity at 70.5 h of 42.1%.
With `CC(Cn1ccnc1)NC(=O)NCc1ccc2c(c1)OCCO2` (stereo not given) the cytotoxicity at 70.5 h was 2.17%.
`O=C(c1ccc(O)nc1)N1Cc2ccccc2OC2(CCOCC2)C1` gave a cytotoxicity at 70.5 h of 0.0352%.
With `O=C(NCc1ccccn1)NCc1ccc(Cl)s1` the cytotoxicity at 70.5 h was 20.5%.
With `CS(=O)(=O)N1CCOC(CNC(=O)c2cccc(C#N)c2)C1` (stereo not given) the cytotoxicity at 70.5 h was 3.98%.
`Cc1cc(NC(=O)NCC(c2ccsc2)N(C)C)n(C)n1` (stereo not given) showed a cytotoxicity at 70.5 h of -10.2%.
`CN(C)c1ncc(CNC(=O)Nc2ccccc2F)n1C` showed a cytotoxicity at 70.5 h of -1.14%.
Compound `O=C(CCc1nc(-c2ccsc2)no1)NCC1CCN(C2CC2)C1` (stereo not given) has a cytotoxicity at 70.5 h of 7.83%.
For `CCC(C)(CC(=O)OC)NC(=O)c1ccc2[nH]ccc2c1` (stereo not given), the cytotoxicity at 70.5 h was -10.1%.
Work on `CN(C)CC(=O)N1Cc2nc(C(=O)N3CCCN(C)CC3)oc2C1` yielded a cytotoxicity at 70.5 h of -7.8%.
`Cc1nc(C)c(S(=O)(=O)NC(=O)c2cccs2)s1` showed a cytotoxicity at 70.5 h of -4.64%.
Compound `O=c1c2ccc(Cl)cc2ncn1CCCN1CCCCC1CO` (stereo not given) has a cytotoxicity at 70.5 h of -15.5%.
`CNC(=O)[C@@H]1C[C@@H](NC(=O)c2cn(C)nc2C)CN1Cc1sccc1C` showed a cytotoxicity at 70.5 h of -2.42%.
In the case of `c1cc(CN2CCOCC3(CCN(CC4CCOCC4)CC3)C2)ccn1`, the cytotoxicity at 70.5 h is reported as -7.05%.
In the case of `COC(=O)c1cc2n(n1)CCN(C(=O)c1csc(CN(C)C)n1)C2`, the cytotoxicity at 70.5 h is reported as -12.3%.
In the case of `Cc1cccc(OCC(O)CN2CCC(c3ccn[nH]3)CC2)c1` (stereo not given), the cytotoxicity at 70.5 h is reported as -0.803%.
Compound `CC(C)(C)n1cc(C(=O)N2CCN(Cc3ccncc3)CC2)cn1` has a cytotoxicity at 70.5 h of -2.1%.
With `Cc1cccc(C2CCCN(C(=O)C3CCN(CC(N)=O)CC3)C2)c1` (stereo not given) the cytotoxicity at 70.5 h was -17.7%.
Work on `CN1CCCCC1c1ncc2c(n1)CCN(Cc1ccc(F)cc1)C2` (stereo not given) yielded a cytotoxicity at 70.5 h of -5.99%.
`COCCN1CCCC12CCN(C(=O)CC1CCCC1)CC2` gave a cytotoxicity at 70.5 h of 3.49%.
With `CN(C)C(=O)c1ccc(C2CCCN2C(=O)c2cccc3c2OCC3)s1` (stereo not given) the cytotoxicity at 70.5 h was -6.24%.
For `CC(=O)N1CCN(C(=O)CNc2cccc(OC(F)F)c2C)CC1`, the cytotoxicity at 70.5 h was -1.78%.
For `Cc1cc(C)n(C2CCN(S(=O)(=O)N3CCOCC3)CC2)n1`, the cytotoxicity at 70.5 h was -6.85%.
With `CCc1cc(N2CCC3(CCCNC3=O)C2)nc(N2CCOCC2)n1` (stereo not given) the cytotoxicity at 70.5 h was -4.73%.
`COCCN1CCn2cc(CNC(=O)c3cnn(C)c3)nc2C1` showed a cytotoxicity at 70.5 h of -38%.
With `CN(C(=O)c1cc(Cl)c[nH]1)C1CCN(c2ccccn2)CC1` the cytotoxicity at 70.5 h was 8.18%.
`COc1cccc(OCC2CCCN(C(=O)c3cnc(C)nc3O)C2)c1` (stereo not given) gave a cytotoxicity at 70.5 h of -9.18%.
With `O=C(c1ccc2[nH]nnc2c1)N1CCCC(n2cccn2)C1` (stereo not given) the cytotoxicity at 70.5 h was -5.26%.
For `CCN(CC)c1ccc(C(=O)N2CCC(c3nc(C)no3)CC2)cn1`, the cytotoxicity at 70.5 h was -7.84%.
With `OCCC1(NCc2ccc(-n3cccn3)cc2)CCOCC1` the cytotoxicity at 70.5 h was -2.65%.
For `CC(O)Cc1cn(CC2CCN(c3nccc4occc34)CC2)nn1` (stereo not given), the cytotoxicity at 70.5 h was 4.74%.
Compound `CCN(CC(=O)NC(C)C)C(=O)c1csc(Cc2ccccc2)n1` has a cytotoxicity at 70.5 h of -9.03%.
Work on `CCc1nc(N2CCCC(O)(CO)CC2)ncc1C` (stereo not given) yielded a cytotoxicity at 70.5 h of -0.208%.
`Cc1cc(CNC(=O)C2CCCCN2C(=O)OC(C)(C)C)no1` (stereo not given) showed a cytotoxicity at 70.5 h of -10.1%.
For `Cc1ccc(CN2CCn3cc(CN4CCN(C)CC4)nc3C2)cc1`, the cytotoxicity at 70.5 h was -13.5%.
For `Cn1cc(S(=O)(=O)N2CCC(OCCCc3ccccc3)C2)cn1` (stereo not given), the cytotoxicity at 70.5 h was 21.6%.
With `Cc1ncc(CN2CCCC(c3nc4ccccc4n3C(C)C)C2)s1` (stereo not given) the cytotoxicity at 70.5 h was -2.93%.
In the case of `CC(C)N1CCC2(C=C(C(=O)N(C)C)c3ccccc32)CC1`, the cytotoxicity at 70.5 h is reported as -16.2%.
Compound `CCCOCCN1CCN(c2ncnc3[nH]ccc23)CC1` has a cytotoxicity at 70.5 h of 1.69%.
